The values below come from patent EP2022493A1, “Composition comprising at least one optically active phthalamide derivative for controlling animal parasites” (Bayer CropScience AG, priority 2007, dated 2009).

SMILES strings stand for the structures.

Data set [1] concerns Boophilus microplus. Briefly: Boophilus microplus - test (injection into adult ticks). The settings on record: application rate of 20 µg/animal; injected into the abdomen of adult ticks; seven days. The data set is classed as in vivo. How it is done:
Boophilus microplus - test Solvent: dimethylsulfoxide To produce a suitable preparation of active compound, 1 part by weight of active compound is mixed with the stated amount of solvent, and the concentrate is diluted with containing solvent to the desired concentration. Adult ticks (Boophilus microplus) are treated by injected with compound solution of the desired concentration into the abdomen. Ticks are transferred into replica plates and incubated in a climate chamber for seven days. Eggs which are not clearly fertile or infertile are further incubated for another 35 days until larvae hatch from the untreated controls. After the specified period of time, the laying of fertile eggs in % is determined. 100 % means that all eggs have been fertile; 0 % means that none of the eggs have been fertile.

Data set [2] has as its system Musca domestica. Briefly: Musca domestica - test. It counts as in vivo. The settings on record: application rate of 100ppm, adults. How it is done: (§1) Solvent: dimethyl sulfoxide
(§2) To produce a suitable preparation of active compound, 10 mg of active compound are dissolved in 0.5 ml solvent, and the concentrate is diluted with water to the desired concentration.
Prior to the assay, a piece or kitchen sponge is soaked with a mixture of sugar and compound solution and placed into a container. 10 adults (Musca domestica) are placed into the container and closed with a perforated lid.
After the specified period of time, mortality in % is determined. 100 % means that all the flies have been killed; 0 % means that none of the flies have been killed.

In data set [3] the test system is Lucilia cuprina larvae. In words: Lucilia cuprina - test (larvae). As to conditions: in Ovis aries, read-out: activity (mortality in %). The data set is classed as in vivo. The procedure: as §1, §2
Approximately 20 -30 (Lucilia cuprina larvae) are transferred into a test tube containing 1cm^3 of minced horse meat and 0.5 ml aqueous dilution of test compound.
After the specified period of time, mortality in % is determined. 100 % means that all the larvae have been killed; 0 % means that none of the larvae have been killed.

Data set [4] is described as follows: Determination of the logP values by HPLC on reversed-phase column (C 18). The data set is classed as physicochemical. The procedure:
Determination of the logP values:
The lambda max values were determined in the maxima of the chromatographic signals using the UV spectra from 190 nm to 400 nm.

Setting [5] is: 0.001 m aqueous nh4hco3/acetonitrile, HPLC, reversed-phase C 18, 40 °C, [c] 0.001 molar aqueous NH4HCO3 solution and acetonitrile at pH 7.8, linear gradient from 10 % to 95 % acetonitrile (v/v).
The mark [6] stands for this setting: 0.1% aqueous phosphoric acid/acetonitrile, HPLC, reversed-phase C 18, 40 °C, [a] 0.1% aqueous phosphoric acid and acetonitrile at pH 2.3, linear gradient from 10 to 95 % (v/v) acetonitrile.

For the molecule `Cc1cc(C(F)(C(F)(F)F)C(F)(F)F)ccc1NC(=O)c1cccc(I)c1C(=O)N[C@@H](C)CS(C)(=O)=O` [Compound 1], the “activity (laying of fertile eggs in %)” value in data set [1] is recorded as at least 80%. Moreover, the mortality at 100 ppm in data set [2] and in data set [3] was at least 80% in each case. Further, the chromatographic logP in data set [4] (0.001 m aqueous nh4hco3/acetonitrile, method [c]: 0.001 molar aqueous NH4HCO3 solution and acetonitrile at pH 7.8, linear gradient from 10 % to 95 % acetonitrile (v/v), HPLC reversed-phase C 18, 40 °C) was determined as 3.2; in data set [4] (0.1% aqueous phosphoric acid/acetonitrile, method [a]: 0.1% aqueous phosphoric acid and acetonitrile at pH 2.3, linear gradient from 10 to 95 % (v/v) acetonitrile, HPLC reversed-phase C 18, 40 °C), 3.18.
For the molecule `Cc1cc(C(F)(C(F)(F)F)C(F)(F)F)ccc1NC(=O)c1cccc(Cl)c1C(=O)N[C@@H](C)CS(C)(=O)=O` [Compound 80], in data set [1], the “activity (laying of fertile eggs in %)” value was at least 80%. Also, the mortality at 100 ppm in data set [2] and in data set [3] was at least 80% in each case.
`CCSC[C@H](C)NC(=O)c1c(I)cccc1C(=O)Nc1ccc(C(C(F)F)C(F)(F)F)cc1C` (stereo partly drawn) [Compound 210]: the “activity (laying of fertile eggs in %)” value in data set [1] is recorded as at least 80%. For the same molecule, the mortality at 100 ppm in data set [2] and in data set [3] was at least 80% each time. Further, the chromatographic logP came out at 3.62 in data set [4] (setting [5]) and 3.63 in data set [4] (setting [6]).
Take `CCSC[C@H](C)NC(=O)c1c(I)cccc1C(=O)Nc1ccc(C(F)(C(F)F)C(F)(F)F)cc1C` (stereo partly drawn) [Compound 218]: the “activity (laying of fertile eggs in %)” value in data set [1] was at least 80%. For the same molecule, the mortality at 100 ppm in data set [2] and in data set [3] was at least 80% in each case. Also, the chromatographic logP in data set [4] (setting [5]) and in data set [4] (setting [6]) was 3.96 throughout.
As for `CSC[C@H](C)NC(=O)c1c(I)cccc1C(=O)Nc1ccc(C(C(F)F)C(F)(F)F)cc1Br` (stereo partly drawn) [Compound 227], in data set [1], the “activity (laying of fertile eggs in %)” value is at least 80%. For the same molecule, the mortality at 100 ppm in data set [2] and in data set [3] was at least 80% in each case. Further, the chromatographic logP in data set [4] (setting [5]) was 3.54; in data set [4] (setting [6]), 3.51.
Take `CCSC[C@H](C)NC(=O)c1c(I)cccc1C(=O)Nc1ccc(C(C(F)F)C(F)(F)F)cc1Cl` (stereo partly drawn) [Compound 235]: the “activity (laying of fertile eggs in %)” value in data set [1] is on record as at least 80%. Besides, the mortality at 100 ppm in data set [2] and in data set [3] was at least 80% throughout. Moreover, the chromatographic logP in data set [4] (setting [5]) came out at 3.79; in data set [4] (setting [6]) it was 3.76.
With `CCSC[C@H](C)NC(=O)c1c(I)cccc1C(=O)Nc1ccc(C(C(F)F)C(F)(F)F)cc1Br` (stereo partly drawn) [Compound 243], the “activity (laying of fertile eggs in %)” value in data set [1] is given as at least 80%. The mortality at 100 ppm in data set [2] and in data set [3] was at least 80% in each case. Further, the chromatographic logP is 3.8 in data set [4] (setting [5]) and 3.78 in data set [4] (setting [6]).
In the case of `CCS(=O)(=O)C[C@H](C)NC(=O)c1c(I)cccc1C(=O)Nc1ccc(C(F)(C(F)F)C(F)(F)F)cc1Cl` (stereo partly drawn) [Compound 251], the “activity (laying of fertile eggs in %)” value in data set [1] is at least 80%. The mortality at 100 ppm in data set [2] and in data set [3] was at least 80% in each case. The chromatographic logP is 3.18 in data set [4] (setting [5]) and 3.12 in data set [4] (setting [6]).
For the molecule `C[C@@H](CS(C)(=O)=O)NC(=O)c1c(I)cccc1C(=O)Nc1ccc(C(C(F)F)C(F)(F)F)cc1F` (stereo partly drawn) [Compound 291], the “activity (laying of fertile eggs in %)” value in data set [1] is at least 80%. In addition, the mortality at 100 ppm in data set [2] and in data set [3] was at least 80% each time. Moreover, the chromatographic logP in data set [4] (setting [5]) is 2.54; in data set [4] (setting [6]) it was 2.5.
`CCS(=O)(=O)C[C@H](C)NC(=O)c1c(I)cccc1C(=O)Nc1ccc(C(C(F)F)C(F)(F)F)cc1Br` (stereo partly drawn) [Compound 299]: in data set [1], the “activity (laying of fertile eggs in %)” value is at least 80%. Further, the mortality at 100 ppm in data set [2] and in data set [3] was at least 80% in each case. Also, the chromatographic logP in data set [4] (setting [5]) turned out to be 2.92; in data set [4] (setting [6]) it was 2.87.
`CSC[C@H](C)NC(=O)c1c(Cl)cccc1C(=O)Nc1ccc(C(F)(C(F)(F)F)C(F)(F)F)cc1C` [Compound 390]: the “activity (laying of fertile eggs in %)” value in data set [1] is at least 80%. For the same molecule, the mortality at 100 ppm in data set [2] and in data set [3] was at least 80% throughout.
